{
  "source": "ChEMBL document CHEMBL1921801",
  "about": "“Discovery and optimization of 2-phenyloxazole derivatives as diacylglycerol acyltransferase-1 inhibitors” (Bioorg Med Chem Lett, 2011)",
  "key": {"[1]": {"assay": "Solubility of the compound", "assay_type": "physicochemical"}, "Rattus norvegicus [2]": {"tested_on": "Rattus norvegicus", "assay": "Antiobesity activity in diet induced obese Sprague-Dawley rat model assessed as reduction in weight gain at 50 mg/kg, po qd for 3 weeks measured on day 21 relative to vehicle treated control", "assay_type": "functional", "parameters": "scale not given: the % may be the effect or the level left"}, "[3]": {"assay": "Kinetic solubility of the compound in phosphate buffered saline at pH 6.5", "assay_type": "physicochemical", "conditions": "read-out: Kinetic_solubility"}, "Cavia porcellus": {"organism": "Cavia porcellus", "assay": "Cardiotoxicity in guinea pig Langendorff heart model assessed as QT prolongation at >= 0.47 uM", "assay_type": "toxicity"}, "Rattus norvegicus [4]": {"tested_on": "Rattus norvegicus", "assay": "Toxicity in diet induced obese Sprague-Dawley rat model assessed as change in liver enzyme activity administered orally after 22 days", "assay_type": "organism-based", "conditions": "in vivo, po, 528 h"}, "Rattus norvegicus [5]": {"tested_on": "Rattus norvegicus", "assay": "Toxicity in diet induced obese Sprague-Dawley rat model assessed as change in heart weight administered orally after 22 days", "assay_type": "organism-based", "conditions": "in vivo, po, 528 h"}, "[6]": {"assay": "Half life in Wistar rat at 5 mg/kg, iv", "assay_type": "ADME, organism-based", "parameters": "dose 5 mg/kg, route intravenous", "conditions": "in vivo"}, "[7]": {"target": "T1, Diacylglycerol O-acyltransferase 1 (Rattus norvegicus, UniProt Q9ERM3)", "T1 sequence (Q9ERM3 whole entry)": "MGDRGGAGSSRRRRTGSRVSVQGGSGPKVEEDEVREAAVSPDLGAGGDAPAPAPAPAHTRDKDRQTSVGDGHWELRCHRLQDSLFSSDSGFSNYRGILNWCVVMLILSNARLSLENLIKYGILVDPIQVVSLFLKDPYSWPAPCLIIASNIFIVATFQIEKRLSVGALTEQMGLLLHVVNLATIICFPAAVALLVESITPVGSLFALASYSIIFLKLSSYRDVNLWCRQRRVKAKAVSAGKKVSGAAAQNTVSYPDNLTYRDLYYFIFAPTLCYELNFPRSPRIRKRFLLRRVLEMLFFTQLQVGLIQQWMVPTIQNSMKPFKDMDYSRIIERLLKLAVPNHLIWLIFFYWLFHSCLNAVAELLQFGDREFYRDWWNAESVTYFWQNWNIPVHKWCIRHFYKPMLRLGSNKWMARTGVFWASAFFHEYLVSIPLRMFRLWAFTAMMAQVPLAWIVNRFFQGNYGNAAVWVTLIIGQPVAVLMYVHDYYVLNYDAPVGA", "assay": "Inhibition of rat DGAT1"}, "[8]": {"assay": "Cmax in diet induced obese Sprague-Dawley rat model at 5 mg/kg, po qd for 3 weeks measured on day 21", "assay_type": "ADME, organism-based", "parameters": "dose 5 mg/kg, route oral", "conditions": "in vivo"}, "Rattus norvegicus [9]": {"tested_on": "Rattus norvegicus", "assay": "Toxicity in diet induced obese Sprague-Dawley rat model assessed as change in liver weight administered orally after 22 days", "assay_type": "organism-based", "conditions": "in vivo, po, 528 h"}, "Rattus norvegicus [10]": {"tested_on": "Rattus norvegicus", "assay": "Toxicity in diet induced obese Sprague-Dawley rat model assessed as change in brain weight administered orally after 22 days", "assay_type": "organism-based", "conditions": "in vivo, po, 528 h"}, "[11]": {"assay": "Solubility of the compound in simulated gastric fluid", "assay_type": "physicochemical"}, "[12]": {"assay": "Cmax in diet induced obese Sprague-Dawley rat model at 25 mg/kg, po qd for 3 weeks measured on day 21", "assay_type": "ADME, organism-based", "parameters": "dose 25 mg/kg, route oral", "conditions": "in vivo"}, "Rattus norvegicus [13]": {"tested_on": "Rattus norvegicus", "assay": "Antiobesity activity in diet induced obese Sprague-Dawley rat model assessed as reduction in weight gain at 25 mg/kg, po qd for 3 weeks measured on day 21 relative to vehicle treated control", "assay_type": "functional", "parameters": "scale not given: the % may be the effect or the level left"}, "Rattus norvegicus [14]": {"tested_on": "Rattus norvegicus", "assay": "Antiobesity activity in po dosed diet induced obese Sprague-Dawley rat model assessed as reduction in weight gain administered qd for 3 weeks relative to vehicle treated control", "assay_type": "functional, organism-based"}, "[15]": {"assay": "Tmax in Wistar rat at 50 mg/kg, po", "assay_type": "ADME, organism-based", "parameters": "dose 50 mg/kg, route oral", "conditions": "in vivo"}, "[16]": {"assay": "AUC in Wistar rat at 5 mg/kg, iv", "assay_type": "ADME, organism-based", "parameters": "dose 5 mg/kg, route intravenous", "conditions": "plasma"}, "[17]": {"assay": "Genotoxicity in micronucleus by micronucleus assay"}, "Rattus norvegicus [18]": {"tested_on": "Rattus norvegicus", "assay": "Antiobesity activity in po dosed diet induced obese Sprague-Dawley rat model assessed as reduction in plasma triglycerides level administered qd for 3 weeks measured on day 21", "assay_type": "functional, organism-based"}, "Rattus norvegicus [19]": {"tested_on": "Rattus norvegicus", "assay": "Antiobesity activity in diet induced obese Sprague-Dawley rat model assessed as decrease in fat pad mass at 50 mg/kg, po qd for 3 weeks measured on day 21 relative to vehicle treated control", "assay_type": "functional, organism-based", "parameters": "dose 50 mg/kg"}, "Rattus norvegicus [20]": {"tested_on": "Rattus norvegicus", "assay": "Antiobesity activity in diet induced obese Sprague-Dawley rat model assessed as reduction in total cholesterol level at 50 mg/kg, po qd for 3 weeks measured on day 21", "assay_type": "functional, organism-based", "parameters": "dose 50 mg/kg"}, "Rattus norvegicus [21]": {"tested_on": "Rattus norvegicus", "assay": "Antiobesity activity in diet induced obese Sprague-Dawley rat model assessed as reduction in plasma free fatty acid level at 50 mg/kg, po qd for 3 weeks measured on day 21", "assay_type": "functional, organism-based", "parameters": "dose 50 mg/kg"}, "Rattus norvegicus [22]": {"tested_on": "Rattus norvegicus", "assay": "Antiobesity activity in diet induced obese Sprague-Dawley rat model assessed as decrease in lean muscle at 50 mg/kg, po qd for 3 weeks measured on day 21 relative to vehicle treated control", "assay_type": "functional, organism-based", "parameters": "dose 50 mg/kg"}, "[23]": {"assay": "Oral bioavailability in Wistar rat at 50 mg/kg", "assay_type": "ADME, organism-based", "conditions": "in vivo"}, "Rattus norvegicus [24]": {"tested_on": "Rattus norvegicus", "assay": "Antiobesity activity in diet induced obese Sprague-Dawley rat model assessed as reduction in plasma triglycerides level at 50 mg/kg, po qd for 3 weeks measured on day 21 relative to vehicle treated control", "assay_type": "functional", "parameters": "scale not given: the % may be the effect or the level left"}, "Salmonella typhimurium": {"tested_on": "Salmonella typhimurium", "assay": "Mutagenic activity in Salmonella Typhimurium by Ames test", "assay_type": "toxicity, organism-based", "conditions": "salmonella enterica subsp. enterica serovar typhimurium"}, "Rattus norvegicus [25]": {"tested_on": "Rattus norvegicus", "assay": "Cmax in diet induced obese Sprague-Dawley rat model at 50 mg/kg, po qd for 3 weeks measured on day 21", "assay_type": "ADME, organism-based", "parameters": "dose 50 mg/kg, route oral", "conditions": "in vivo, 504 h"}, "Rattus norvegicus [26]": {"tested_on": "Rattus norvegicus", "assay": "Toxicity in diet induced obese Sprague-Dawley rat model assessed as change in kidney weight administered orally after 22 days", "assay_type": "organism-based", "conditions": "in vivo, po, 528 h"}, "[27]": {"assay": "Volume of distribution in Wistar rat at 5 mg/kg, iv", "assay_type": "ADME, organism-based", "parameters": "dose 5 mg/kg, route intravenous", "conditions": "in vivo"}, "Rattus norvegicus [28]": {"tested_on": "Rattus norvegicus", "assay": "Cmax in Wistar rat at 50 mg/kg, po", "assay_type": "ADME, organism-based", "parameters": "dose 50 mg/kg, route oral", "conditions": "in vivo"}, "[29]": {"assay": "AUC in Wistar rat at 50 mg/kg, po", "assay_type": "ADME, organism-based", "parameters": "dose 50 mg/kg, route oral", "conditions": "plasma"}, "[30]": {"assay": "Fraction unbound in human serum", "assay_type": "ADME, cell-free"}},
  "note": "Calls of active or inactive are those of the source. The rule behind the calls is not given here.",
  "data": [
    {"smiles": "CCCn1[nH]c(=O)c2cc(NC(=O)c3nc(-c4ccccc4)oc3C(F)(F)F)ccc21", "values": [
      {"measurement": "solubility", "setting": "[1]", "result": "Insoluble"}
    ]},
    {"smiles": "COCCN(C)c1ccc(NC(=O)c2nc(-c3ccccc3)oc2C(F)(F)F)cn1", "values": [
      {"measurement": "Activity", "setting": "Rattus norvegicus [2]", "result": 8, "unit": "%"},
      {"measurement": "solubility kinetic", "setting": "[3]", "result": 1, "unit": "µg/mL"},
      {"measurement": "Activity", "setting": "Cavia porcellus", "result": "Toxic"},
      {"measurement": "Activity", "setting": "Rattus norvegicus [4]", "result": "Non-toxic"},
      {"measurement": "Activity", "setting": "Rattus norvegicus [5]", "result": "Non-toxic"},
      {"measurement": "half-life", "setting": "[6]", "result": 1.95, "unit": "h"},
      {"measurement": "IC50", "setting": "[7]", "result": 120, "unit": "nM"},
      {"measurement": "Cmax", "setting": "[8]", "result": 2.6, "unit": "µM"},
      {"measurement": "Activity", "setting": "Rattus norvegicus [9]", "result": "Non-toxic"},
      {"measurement": "Activity", "setting": "Rattus norvegicus [10]", "result": "Non-toxic"},
      {"measurement": "solubility", "setting": "[11]", "result": 770, "unit": "µg/mL"},
      {"measurement": "Cmax", "setting": "[12]", "result": 7.8, "unit": "µM"},
      {"measurement": "Activity", "setting": "Rattus norvegicus [13]", "result": 4, "unit": "%"},
      {"measurement": "Activity", "setting": "Rattus norvegicus [14]", "result": "Dose-dependent effect"},
      {"measurement": "Tmax", "setting": "[15]", "result": 1, "unit": "h"},
      {"measurement": "AUC", "setting": "[16]", "result": 6160, "unit": "ng·h/mL"},
      {"measurement": "Activity", "setting": "[17]", "result": "Non-toxic"},
      {"measurement": "Activity", "setting": "Rattus norvegicus [18]", "result": "Dose-dependent effect"},
      {"measurement": "Activity", "setting": "Rattus norvegicus [19]", "result": "Active"},
      {"measurement": "Activity", "setting": "Rattus norvegicus [20]", "result": "Active"},
      {"measurement": "Activity", "setting": "Rattus norvegicus [21]", "result": "Active"},
      {"measurement": "Activity", "setting": "Rattus norvegicus [22]", "result": "inactive"},
      {"measurement": "bioavailability", "setting": "[23]", "result": 77, "unit": "%"},
      {"measurement": "Activity", "setting": "Rattus norvegicus [24]", "result": 64, "unit": "%"},
      {"measurement": "Activity", "setting": "Salmonella typhimurium", "result": "Non-toxic"},
      {"measurement": "Cmax", "setting": "Rattus norvegicus [25]", "result": 12.2, "unit": "µM"},
      {"measurement": "Activity", "setting": "Rattus norvegicus [26]", "result": "Non-toxic"},
      {"measurement": "Vd", "setting": "[27]", "result": 1.6, "unit": "L/kg"},
      {"measurement": "Cmax", "setting": "Rattus norvegicus [28]", "result": 10200, "unit": "ng/mL"},
      {"measurement": "AUC", "setting": "[29]", "result": 47200, "unit": "ng·h/mL"},
      {"measurement": "fraction unbound", "setting": "[30]", "result": 0.015}
    ]}
  ]
}
